Key:
[1] = system: metastatic melanoma patients; conditions: in combination with IL-2, metastatic melanoma patients; cited from earlier work
HHD×ERG^pb/pb mice = conditions: mouse, in vivo; SD
HHD mice = conditions: mean from 3 mice ± SD

Substance | Median overall survival [1] | ERG295 responsive T-cells (HHD×ERG^pb/pb mice) | ERG295 responsive cells per million splenocytes (HHD×ERG^pb/pb mice) | ERG295 responsive cells per million splenocytes (HHD mice; HHD mice around 16 weeks old, 1 immunization) | ERG295 responsive T-cells (HHD mice; HHD mice, 3 immunizations at 7-day intervals)
gp100:209:217(210M): HLA-A*0201 restricted melanoma epitope (IMDQVPFSV; UniProt P40967 209-217, looked up, variant T210M) | significantly improved median overall survival |  |  |  | 
QLWQFLLEL [ERG295] |  | 305 ± 49 | 177 ± 51 per million splenocytes | 275 ± 45 per million splenocytes | 405 ± 120
